Measurements as given in US8389526B2, “3-heteroarylmethyl-imidazo[1,2-b]pyridazin-6-yl derivatives” (Novartis AG, priority 2009, dated 2013).

Experiments:
[1] = biological target: T1, c-Met receptor tyrosine kinase, GST-c-Met(969-1390) (Homo sapiens, UniProt P08581); assay: EPK c-Met profiling assay (LanthaScreen TR-FRET kinase assay); assay type: biochemical; conditions: 2 μM ATP, 0.3 nM enzyme, 60 minutes at room temperature
T1 construct: made in house
Summary of the method: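 Recombinant GST-c-Met(969-1390) cytoplasmic domain, 0.3 nM, phosphorylating 50 nM Fluorescein-PolyEAY with 2 μM ATP, 10 mM MgCl2, 3 mM MnCl2, 60 min at room temperature. EDTA-stopped; phosphoproduct detected by TR-FRET with Tb-PY20 antibody, end-point read. Final compound 0.003-10 μM over 8 concentrations.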

c-Met = biological target: T2, c-Met (Homo sapiens, UniProt P08581); assay: GTL-16 c-Met autophosphorylation measured by AlphaScreen detection; assay type: cell-based; conditions: GTL-16 cells, 1 h incubation, AlphaScreen p-c-Met; read-out: GTL-16 IC50 c-Met phosphorylation
T2 construct: adapted to measure the phosphorylation of endogenous cellular proteins in cell lysates; endogenous in cells; host or cells: GTL-16
T2 sequence (P08581 25-1390): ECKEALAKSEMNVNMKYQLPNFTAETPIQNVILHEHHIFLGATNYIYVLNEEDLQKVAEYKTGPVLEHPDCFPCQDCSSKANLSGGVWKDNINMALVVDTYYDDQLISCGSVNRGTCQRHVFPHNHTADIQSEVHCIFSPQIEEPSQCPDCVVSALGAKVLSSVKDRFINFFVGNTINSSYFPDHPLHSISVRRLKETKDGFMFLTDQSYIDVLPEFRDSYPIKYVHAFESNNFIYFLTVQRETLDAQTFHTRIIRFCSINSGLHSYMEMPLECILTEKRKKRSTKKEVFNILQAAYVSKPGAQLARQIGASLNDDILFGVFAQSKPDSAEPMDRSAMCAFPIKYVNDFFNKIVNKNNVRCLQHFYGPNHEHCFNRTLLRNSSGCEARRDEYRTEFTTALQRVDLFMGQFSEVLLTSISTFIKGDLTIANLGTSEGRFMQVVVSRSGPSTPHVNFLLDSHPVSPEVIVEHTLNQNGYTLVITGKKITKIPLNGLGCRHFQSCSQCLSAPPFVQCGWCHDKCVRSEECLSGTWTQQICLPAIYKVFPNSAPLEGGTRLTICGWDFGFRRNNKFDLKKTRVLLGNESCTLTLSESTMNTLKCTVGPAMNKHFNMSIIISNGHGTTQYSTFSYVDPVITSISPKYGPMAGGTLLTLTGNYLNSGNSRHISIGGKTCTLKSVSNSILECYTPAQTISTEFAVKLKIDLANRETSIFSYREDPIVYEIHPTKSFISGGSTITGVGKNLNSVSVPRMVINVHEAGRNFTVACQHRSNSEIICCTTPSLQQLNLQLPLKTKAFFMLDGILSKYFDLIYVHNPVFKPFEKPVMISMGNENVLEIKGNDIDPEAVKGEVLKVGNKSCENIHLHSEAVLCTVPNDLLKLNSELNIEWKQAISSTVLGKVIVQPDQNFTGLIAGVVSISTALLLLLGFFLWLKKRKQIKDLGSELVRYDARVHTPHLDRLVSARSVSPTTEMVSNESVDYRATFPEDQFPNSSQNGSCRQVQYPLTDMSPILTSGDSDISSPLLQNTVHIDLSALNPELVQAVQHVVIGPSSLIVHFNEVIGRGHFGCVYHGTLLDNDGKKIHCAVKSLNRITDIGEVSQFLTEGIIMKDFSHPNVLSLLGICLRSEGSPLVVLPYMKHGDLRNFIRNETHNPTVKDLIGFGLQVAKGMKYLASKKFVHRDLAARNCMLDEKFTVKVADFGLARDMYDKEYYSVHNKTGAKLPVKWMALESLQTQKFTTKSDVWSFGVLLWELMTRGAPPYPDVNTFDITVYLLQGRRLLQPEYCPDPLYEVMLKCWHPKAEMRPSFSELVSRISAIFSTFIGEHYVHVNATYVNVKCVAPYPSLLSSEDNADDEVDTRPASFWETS
Summary of the method: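 GTL-16 MET-amplified gastric cancer cells, serum-free DMEM with 0.1% BSA, exposed to 8-point compound dilutions for 1 h at 37° C (0.11% DMSO final). Lysates probed for phospho-c-Met by AlphaScreen using anti-c-Met antibody, biotinylated PY20 phosphotyrosine antibody, Protein A acceptor and streptavidin donor beads.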

T1 sequence (P08581 969-1390): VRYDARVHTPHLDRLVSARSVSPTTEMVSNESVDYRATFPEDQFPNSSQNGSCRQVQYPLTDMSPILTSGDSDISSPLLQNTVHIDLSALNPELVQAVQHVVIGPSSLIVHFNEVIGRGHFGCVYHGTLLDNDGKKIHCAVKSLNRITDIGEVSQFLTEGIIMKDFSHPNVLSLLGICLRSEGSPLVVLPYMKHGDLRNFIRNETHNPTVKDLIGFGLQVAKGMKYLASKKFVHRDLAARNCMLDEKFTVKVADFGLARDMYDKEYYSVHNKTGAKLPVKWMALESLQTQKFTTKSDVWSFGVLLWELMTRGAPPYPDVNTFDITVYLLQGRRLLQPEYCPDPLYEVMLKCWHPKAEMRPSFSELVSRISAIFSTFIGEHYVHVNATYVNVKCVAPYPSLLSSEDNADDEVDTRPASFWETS

| SMILES | IC50 [1] [nM] | IC50 (c-Met) [nM] |
| --- | --- | --- |
| C[C@@H](c1c(F)cc2ncccc2c1F)c1cnc2ccc(N3CCNC(=O)C3)nn12 (single isomer, unassigned) [Example 5] | < 3 | < 3 |
| CC(=O)N1CCN(c2ccc3ncc([C@@H](C)c4c(F)cc5ncccc5c4F)n3n2)CC1 [Example 11, 1-(4-{3-[(S)-1-(5,7-Difluoro-quinolin-6-yl)-ethyl]-imidazo[1,2-b]pyridazin-6-yl}-piperazin-1-yl)ethanone] | 3.6 | 4.4 |
| C[C@@H](c1cc2cnn(C)c2cc1F)c1cnc2ccc(N3CCNC(=O)C3)nn12 [Example 28, 4-{3-[(S)-1-(6-Fluoro-1-methyl-1H-indazol-5-yl)-ethyl]-imidazo[1,2-b]pyridazin-6-yl}-piperazin-2-one] | 17 | 11 |
| C[C@@H](c1c(F)cc2ncccc2c1F)c1cnc2ccc(N3CCNCC3)nn12 [Example 7, 5,7-Difluoro-6-[(S)-1-(6-piperazin-1-yl-imidazo[1,2-b]pyridazin-3-yl)-ethyl]-quinoline] | 4.1 | 2.1 |
| C[C@@H](c1c(F)cc2ncccc2c1F)c1cnc2ccc(N3CCN(C)C(=O)C3)nn12 [Example 2, 4-{3-[(S)-1-(5,7-Difluoro-quinolin-6-yl)-ethyl]-imidazo[1,2-b]pyridazin-6-yl}-1-methyl-piperazin-2-one] | < 3 | 2.7 |
